Assay results published in patent US6458568B1, “Method for the production of baccatin-III by enzymatic synthesis” (Institut fuer Bioanalytik, Umwelt-Toxikologie und …, priority 1998, dated 2002).

Test system: acetyl transferase from Taxus baccata
Experiment: Enzymatic acetylation of substrates in the enzyme reactor (substrate specificity)
Assay type: biochemical
Conditions: used as in the example in place of 10-DAB; compared with 10-deacetyl baccatin III
Procedure: The synthesis in the enzyme reactor is carried out under the following conditions: The solvent used in the process is a 1:4 mixture of chloroform and heptane.

For baccatin III, which “acetylation as substrate of the acetyl transferase” value (shortened to “acetylation as substrate”) is on record?
Its value is “not acetylated”.

Which “acetylation as substrate” value does the source give for `CC(=O)O[C@@]12CO[C@@H]1C[C@H](O)[C@@]1(C)C(=O)[C@H](O)C3=C(C)[C@@H](OC(=O)[C@H](O)[C@@H](NC(=O)c4ccccc4)c4ccccc4)C[C@@](O)([C@@H](OC(=O)c4ccccc4)[C@H]21)C3(C)C` [10-Deacetyl taxol] here?
The value was “significantly weaker as a substrate”.

How did the “acetylation as substrate” value turn out when `CC(=O)O[C@H]1C(=O)[C@@]2(C)[C@H]([C@H](OC(=O)c3ccccc3)[C@]3(O)C[C@H](OC(=O)[C@H](O)[C@@H](NC(=O)c4ccccc4)c4ccccc4)C(C)=C1C3(C)C)[C@]1(OC(C)=O)CO[C@@H]1C[C@@H]2O` [taxol] was run?
Its value is “not acetylated”.
